Results from patent US12582654B2, “Cyano-substituted pyridine and cyano-substituted pyrimidine compound and preparation method therefor and application thereof” (BEIJING SCITECH-MQ PHARMACEUTICALS LIMITED, priority 2019, dated 2026).

Key:
[1] = molecular target: FGFR4 kinase (Homo sapiens, UniProt P22455); test: Inhibition of FGFR4 kinase activity (ULight-labeled JAK-1 peptide, EU665/EU615 reading); assay type: biochemical; settings: FGFR4 kinase 3.85 nM, ATP 100 μM, enzymatic reaction 2 hours
Description: (§1) Assay of activity of small molecule compounds on inhibiting FGFR4 kinase and FGFR4 V550L mutant kinase. The assay method was as follows:
(§2) 1) Dilution of Compounds:
(§3) In a 96-well plate a, the compounds were serially diluted 3-fold with DMSO to form 11 concentrations, and the 12th concentration was pure DMSO (as a positive control); In a new 96-well plate b, the above solutions were diluted 25-fold with ultrapure water (DMSO concentration was 4%).
(§4) 2) Transferring Compounds to a 384-Well Plate:
(§5) The above solutions of compounds diluted with ultrapure water in the 96-well plate b were pipetted into corresponding wells of a 384-well plate.
(§6) 3) Adding 4× kinase solution: 2.5 μl of the above 4× kinase solutions were pipetted with a multi-channel pipette into corresponding reaction wells of the 384-well plate, and the mixture was mixed well and pre-reacted at room temperature for 5 minutes.
(§7) 4) Adding 2× substrate/ATP mixture: 5 μl of the above 2× substrate/ATP mixtures were pipetted with a multi-channel pipette into corresponding reaction wells of the 384-well plate.
(§8) 5) Negative control: negative control wells were set up in the 384-well plate by adding 2.5 μl of 4× substrate, 2.5 μl of 4× enzyme solution, 2.5 μl of 1× kinase Assay Buffer and 2.5 μl of ultrapure water containing 4% DMSO to each well.
(§9) 6) Centrifuging, mixing well, and reacting at room temperature in the dark for 2 hours.
(§10) 7) Terminating the Enzymatic Reaction:
(§11) 5 μl of the above 4× stop solutions were pipetted into corresponding wells of the 384-well plate, and the mixture was centrifuged, mixed well, and then reacted at room temperature for 5 minutes.
(§12) 8) Development of the Reaction:
(§13) 5 μl of the above 4× detection solutions were pipetted into corresponding wells of the 384-well plate, and the mixture was centrifuged, mixed well, and then reacted at room temperature for 1 hour.
(§14) 9) The 384-well plate was placed into a plate reader, and the signal was detected using the appropriate program.
(§15) 10) Analysis of IC50: Reading of well=10000*EU665 value/EU615 value Inhibition rate=(reading of positive control well−reading of assay well)/(reading of positive control well−reading of negative control well)*100%
(§16) The corresponding IC50 can be calculated by inputting the drug concentrations and corresponding inhibition rates into GraphPad Prism 5 and processing.
Assay Conditions for Screening FGFR4 Kinase Activity Inhibitory Molecule:
The final concentration of FGFR4 kinase in the reaction system was 3.85 nM, the final concentration of ATP was 100 μM, the final concentration of substrate ULight™-labeled JAK-1 (Tyr1023) Peptide was 100 nM, and the time for enzymatic reaction was 2 hours.
The highest final concentration of the compound in the reaction system was 2.5 μM. After serial 3-fold dilution, there were 11 concentrations in total, and the lowest final concentration was 0.042 nM. The final concentration of DMSO was 1%.

[2] = molecular target: T1, Ba/F3 ETV6-FGFR4 cells (Homo sapiens, UniProt P22455); test: Inhibition of cell proliferation (CCK-8), Ba/F3 ETV6-FGFR4 cells; assay type: cell-based; settings: 72 hours of incubation, read-out: Ba/F3 ETV6-FGFR4 IC50
T1 construct: fused on or other part: N-terminal part of ETV6 (TEL), the oligomerising partner that makes the FGFR4 kinase constitutively active; P41212 (Transcription factor ETV6)
Description: (§17) Compounds were assayed for inhibiting cell proliferation, and the specific method was as follows: • 1. Cells were cultured to a logarithmic growth phase, pipetted evenly, transferred to a 15 mL centrifuge tube, and centrifuged at 1000 rpm at room temperature for 4 minutes; • 2. The supernatant was discarded; 5 mL of complete medium was added and pipetted evenly; 10 μL of cell suspension was weighed, mixed well with 10 μL of 0.4% trypan blue, and counted under a cell counter; the proportion of living cells was ensured to be above 90%; • 3. The cell suspension was seeded into a 96-well plate (80 μL of cell suspension per well) according to the conditions shown in Table 5; in the outer 36 wells of the 96-well plate, no cells were added but only sterile water was added; only the inner 60 wells were used for cell assay and control; • 4. 5× compound dilution: the compounds were serially diluted 4-fold to give a total of 9 concentrations; 80-fold overall dilution was completed with complete medium, the resulting concentration was 5 times the final drug concentration, and DMSO concentration was 1.25%; • 5. 20 μL of the corresponding compounds with different concentrations were added to each well of assay wells of the 96-well plate; 20 μL of complete medium was added to positive and negative control wells and shaken well; and the final concentration of DMSO in each well was 0.25%; • 6. After 72 hours of incubation, 10 μL of CCK-8 reagent was added to each well and further incubated at 37° C. for 1-2 hours; and the OD value was read at 450 nm; 7. Cell survival rate (%)=[(As−Ab)/(Ac−Ab)]*100% • As: Assay well (medium containing cells, CCK-8, compound) • Ac: Control well (medium containing cells, CCK-8) • Ab: Blank well (medium without cell and compound, CCK-8) • 8. The values were imported into Graphpad Prism 5 software for IC50 calculation.

[3] = molecular target: FGFR4 V550L kinase (Homo sapiens, UniProt P22455, V550L); test: Inhibition of FGFR4 V550L mutant kinase activity (ULight-labeled PolyGT, EU665/EU615 reading); assay type: biochemical; settings: FGFR4 V550L kinase 1 nM, ATP 10 μM, enzymatic reaction 2 hours
Description: as §1, §2, §3, §4, §5, §6, §7, §8, §9, §10, §11, §12, §13, §14, §15, §16
Assay Conditions for Screening FGFR4 V550L Kinase Activity Inhibitory Molecule:
The final concentration of FGFR4 V550L kinase in the reaction system was 1 nM, the final concentration of ATP was 10 μM, the final concentration of substrate ULight™-labeled PolyGT was 100 nM, and the time for enzymatic reaction was 2 hours.
The highest final concentration of the compound in the reaction system was 2.5 μM. After seral 3-fold dilution, there were 11 concentrations in total, and the lowest final concentration was 0.042 nM. The final concentration of DMSO was 1%.

[4] = molecular target: T2, Ba/F3 ETV6-FGFR4-V550L cells (Homo sapiens, UniProt P22455, V550L, cells depend on it); test: Inhibition of cell proliferation (CCK-8), Ba/F3 ETV6-FGFR4-V550L cells; assay type: cell-based; settings: 72 hours of incubation, read-out: Ba/F3 ETV6-FGFR4-V550L IC50
T2 construct: fused on or other part: N-terminal part of ETV6 (TEL), the oligomerising partner of the fusion; already named as the first entry; P41212 (Transcription factor ETV6)
Description: as §17

Chain of FGFR4 V550L kinase (P22455 22-802 V550L): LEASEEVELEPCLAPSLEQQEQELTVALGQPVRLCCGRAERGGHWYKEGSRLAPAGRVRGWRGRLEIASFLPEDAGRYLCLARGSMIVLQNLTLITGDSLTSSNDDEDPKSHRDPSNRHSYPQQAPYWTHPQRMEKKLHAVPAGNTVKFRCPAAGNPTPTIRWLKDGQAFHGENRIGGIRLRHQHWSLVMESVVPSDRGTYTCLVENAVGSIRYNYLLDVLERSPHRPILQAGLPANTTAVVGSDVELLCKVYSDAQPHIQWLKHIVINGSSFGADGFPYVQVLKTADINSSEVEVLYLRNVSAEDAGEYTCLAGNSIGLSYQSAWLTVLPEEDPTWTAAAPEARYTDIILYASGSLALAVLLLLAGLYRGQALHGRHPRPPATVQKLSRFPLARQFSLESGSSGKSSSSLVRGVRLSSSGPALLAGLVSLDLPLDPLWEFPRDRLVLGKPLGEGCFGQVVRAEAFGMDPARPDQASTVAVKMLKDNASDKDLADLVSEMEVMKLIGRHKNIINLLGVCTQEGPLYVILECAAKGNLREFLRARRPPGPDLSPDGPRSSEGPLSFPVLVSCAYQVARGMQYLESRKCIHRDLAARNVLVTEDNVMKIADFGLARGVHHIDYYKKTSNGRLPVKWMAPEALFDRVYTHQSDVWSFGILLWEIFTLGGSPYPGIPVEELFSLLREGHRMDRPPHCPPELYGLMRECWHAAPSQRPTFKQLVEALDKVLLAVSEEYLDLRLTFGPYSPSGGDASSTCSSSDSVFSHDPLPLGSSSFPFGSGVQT
T2 sequence (P22455 whole entry V550L, the tested form may be a part): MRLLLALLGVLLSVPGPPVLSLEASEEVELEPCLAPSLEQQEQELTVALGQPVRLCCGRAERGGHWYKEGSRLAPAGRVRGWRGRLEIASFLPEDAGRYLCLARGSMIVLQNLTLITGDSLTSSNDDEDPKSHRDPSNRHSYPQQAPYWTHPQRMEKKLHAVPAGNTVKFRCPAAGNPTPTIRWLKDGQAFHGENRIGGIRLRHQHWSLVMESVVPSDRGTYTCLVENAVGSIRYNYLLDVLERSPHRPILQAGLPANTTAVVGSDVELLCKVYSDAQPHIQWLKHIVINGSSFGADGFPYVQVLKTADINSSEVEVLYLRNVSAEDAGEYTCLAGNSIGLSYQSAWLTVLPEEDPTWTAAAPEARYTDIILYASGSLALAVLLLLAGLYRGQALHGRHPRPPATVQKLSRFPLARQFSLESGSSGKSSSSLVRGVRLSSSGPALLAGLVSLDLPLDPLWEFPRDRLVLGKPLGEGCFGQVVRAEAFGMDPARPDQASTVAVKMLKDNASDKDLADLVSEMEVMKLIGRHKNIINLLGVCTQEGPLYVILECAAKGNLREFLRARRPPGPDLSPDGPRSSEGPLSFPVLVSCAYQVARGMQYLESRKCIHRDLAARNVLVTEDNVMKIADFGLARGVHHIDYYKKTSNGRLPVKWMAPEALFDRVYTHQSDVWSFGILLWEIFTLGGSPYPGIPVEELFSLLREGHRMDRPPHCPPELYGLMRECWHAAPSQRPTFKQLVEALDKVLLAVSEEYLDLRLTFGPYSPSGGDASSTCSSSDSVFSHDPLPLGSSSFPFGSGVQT
Chain of FGFR4 kinase (P22455 22-802): as the sequence (P22455 22-802 V550L) above, with L529V counted along it
T1 sequence (P22455 whole entry, change not shown, the tested form may be a part): as the sequence (P22455 whole entry V550L, the tested form may be a part) above, with L550V counted along it

C=CC(=O)Nc1cc(N2CCN(C)CC2)ccc1Nc1ncc(C#N)c(Nc2ccccc2OC(C)C)n1 [Example 1, N-(2-((5-cyano-4-((2-isopropoxyphenyl)amino)pyrimidin-2-yl)amino)-5-(4-methylpiperazin-1-yl)phenyl)acrylamide]
IC50 [1]: 10 to 50 nM
GI50 [2]: ≤ 10 nM
IC50 [3]: ≤ 10 nM
GI50 [4]: ≤ 10 nM

C=CC(=O)Nc1cc(N2CCC(N(C)C)CC2)ccc1Nc1ncc(C#N)c(Nc2ccccc2OC(C)C)n1 [Example 2, N-(2-((5-cyano-4-((2-isopropoxyphenyl)amino)pyrimidin-2-yl)amino)-5-(4-(dimethylamino)piperidin-1-yl)phenyl) acrylamide]
IC50 [1]: 10 to 50 nM
GI50 [2]: ≤ 10 nM
IC50 [3]: ≤ 10 nM
GI50 [4]: ≤ 10 nM

C=CC(=O)Nc1cc(N2CCC(N3CCCC3)CC2)ccc1Nc1ncc(C#N)c(Nc2ccccc2OC(C)C)n1 [Example 3, N-(2-((5-cyano-4-((2-isopropoxyphenyl)amino)pyrimidin-2-yl)amino)-5-(4-(pyrrolidin-1-yl)piperidin-1-yl)phenyl) acrylamide]
IC50 [1]: 10 to 50 nM
GI50 [2]: ≤ 10 nM
IC50 [3]: ≤ 10 nM
GI50 [4]: ≤ 10 nM

C=CC(=O)Nc1cc(N2CCC(N3CCCCC3)CC2)ccc1Nc1ncc(C#N)c(Nc2ccccc2OC(C)C)n1 [Example 4, N-(5-([1,4′-bipiperidin]-1′-yl)-2-((5-cyano-4-((2-isopropoxyphenyl)amino)pyrimidin-2-yl)amino)phenyl) acrylamide]
IC50 [1]: 10 to 50 nM
GI50 [2]: ≤ 10 nM
IC50 [3]: ≤ 10 nM
GI50 [4]: ≤ 10 nM

C=CC(=O)Nc1cc(N2CCC(N3CCOCC3)CC2)ccc1Nc1ncc(C#N)c(Nc2ccccc2OC(C)C)n1 [Example 5, N-(2-((5-cyano-4-((2-isopropoxyphenyl)amino)pyrimidin-2-yl)amino)-5-(4-morpholinopiperidin-1-yl)phenyl) acrylamide]
IC50 [1]: 50 to 100 nM
GI50 [2]: ≤ 10 nM
IC50 [3]: 10 to 50 nM
GI50 [4]: ≤ 10 nM

C=CC(=O)Nc1cc(N2CCC(N3CCN(C)CC3)CC2)ccc1Nc1ncc(C#N)c(Nc2ccccc2OC(C)C)n1 [Example 6, N-(2-((5-cyano-4-((2-isopropoxyphenyl)amino)pyrimidin-2-yl)amino)-5-(4-(4-methylpiperazin-1-yl)piperidin-1-yl)phenyl) acrylamide]
IC50 [1]: ≤ 10 nM
GI50 [2]: ≤ 10 nM
IC50 [3]: ≤ 10 nM
GI50 [4]: ≤ 10 nM

C=CC(=O)Nc1cc(N2CCN(C)CC2)c(C)cc1Nc1ncc(C#N)c(Nc2ccccc2OC(C)C)n1 [Example 7, N-(2-((5-cyano-4-((2-isopropoxyphenyl)amino)pyrimidin-2-yl)amino)-4-methyl-5-(4-methylpiperazin-1-yl)phenyl) acrylamide]
IC50 [1]: 50 to 100 nM
GI50 [2]: ≤ 10 nM
IC50 [3]: 10 to 50 nM
GI50 [4]: 10 to 50 nM

C=CC(=O)Nc1cc(N2CCN(CC)CC2)c(C)cc1Nc1ncc(C#N)c(Nc2ccccc2OC(C)C)n1 [Example 8, N-(2-((5-cyano-4-((2-isopropoxyphenyl)amino)pyrimidin-2-yl)amino)-5-(4-ethylpiperazin-1-yl)-4-methylphenyl) acrylamide]
IC50 [1]: 10 to 50 nM
GI50 [2]: ≤ 10 nM
IC50 [3]: ≤ 10 nM
GI50 [4]: ≤ 10 nM

C=CC(=O)Nc1cc(N2CCC(N(C)C)CC2)c(C)cc1Nc1ncc(C#N)c(Nc2ccccc2OC(C)C)n1 [Example 9, N-(2-((5-cyano-4-((2-isopropoxyphenyl)amino)pyrimidin-2-yl)amino)-5-(4-(dimethylamino)piperidin-1-yl)-4-methylphenyl) acrylamide]
IC50 [1]: 10 to 50 nM
IC50 [3]: 10 to 50 nM

C=CC(=O)Nc1cc(N2CCC(N3CCCC3)CC2)c(C)cc1Nc1ncc(C#N)c(Nc2ccccc2OC(C)C)n1 [Example 10, N-(2-((5-cyano-4-((2-isopropoxyphenyl)amino)pyrimidin-2-yl)amino)-4-methyl-5-(4-(pyrrolidin-1-yl)piperidin-1-yl)phenyl) acrylamide]
IC50 [1]: 10 to 50 nM
GI50 [2]: ≤ 10 nM
IC50 [3]: 10 to 50 nM
GI50 [4]: 10 to 50 nM

C=CC(=O)Nc1cc(N2CCC(N3CCCCC3)CC2)c(C)cc1Nc1ncc(C#N)c(Nc2ccccc2OC(C)C)n1 [Example 11, N-(5-([1,4‘- bipiperidin]-1′-yl)-2-((5-cyano-4-((2-isopropoxyphenyl)amino)pyrimidin-2-yl)amino)-4-methylphenyl) acrylamide]
IC50 [1]: 10 to 50 nM
GI50 [2]: 10 to 50 nM
GI50 [4]: 10 to 50 nM

C=CC(=O)Nc1cc(N2CCC(N3CCOCC3)CC2)c(C)cc1Nc1ncc(C#N)c(Nc2ccccc2OC(C)C)n1 [Example 12, N-(2-((5-cyano-4-((2-isopropoxyphenyl)amino)pyrimidin-2-yl)amino)-4-methyl-5-(4-morpholinopiperidin-1-yl)phenyl) acrylamide]
IC50 [1]: 10 to 50 nM
IC50 [3]: 10 to 50 nM

C=CC(=O)Nc1cc(N2CCN(CC)CC2)ccc1Nc1ncc(C#N)c(Nc2ccc(C#N)cc2OC(C)C)n1 [Example 32, N-(2-((5-cyano-4-((4-cyano-2-isopropoxyphenyl)amino)pyrimidin-2-yl)amino)-5-(4-ethylpiperazin-1-yl)phenyl) acrylamide]
GI50 [2]: ≤ 10 nM
IC50 [3]: 10 to 50 nM
GI50 [4]: 10 to 50 nM

C=CC(=O)Nc1cc(N2CCC(N(C)C)CC2)ccc1Nc1cc(Nc2ccccc2OC(C)C)c(C#N)cn1 [Example 82, N-(2-((5-cyano-4-((2-isopropoxyphenyl)amino)pyridin-2-yl)amino)-5-(4-(dimethylamino)piperidin-1-yl)phenyl)acrylamide]
IC50 [1]: 10 to 50 nM

C=CC(=O)Nc1cc(N2CCC(N3CCN(C)CC3)CC2)ccc1Nc1cc(Nc2ccccc2OC(C)C)c(C#N)cn1 [Example 83, N-(2-((5-cyano-4-((2-isopropoxyphenyl)amino)pyridin-2-yl)amino)-5-(4-(4-methylpiperazin-1-yl)piperidin-1-yl)phenyl)acrylamide]
IC50 [1]: 10 to 50 nM

C=CC(=O)Nc1cc(N2CCN(CC)CC2)ccc1Nc1cc(Nc2ccccc2OC(C)C)c(C#N)cn1 [Example 84, N-(2-((5-cyano-4-((2-isopropoxyphenyl)amino)pyridin-2-yl)amino)-5-(4-ethylpiperazin-1-yl)phenyl)acrylamide]
IC50 [1]: 10 to 50 nM
